Bridge positions count the residues as written; N and C are the ends. Ends that are not written are not given here.

Usually Kd stands for a measure of binding affinity in units of concentration.

One assay has as its target Calmodulin (holo) (UniProt P0DP23). The assay is described as follows: tryptophan fluorescence. The conditions noted are these: cited from earlier work.
For assay [1], the target named is T1, PIRT (Phosphoinositide-interacting regulator of TRP) (Homo sapiens, UniProt P0C851). The assay is described as follows: microscale thermophoresis; […]-PIRT HSQC NMR chemical shift perturbation. It counts as binding. (In MST a laser heats a spot of the sample, and binding alters the fluorescence response.)
T1 sequence (P0C851 whole entry): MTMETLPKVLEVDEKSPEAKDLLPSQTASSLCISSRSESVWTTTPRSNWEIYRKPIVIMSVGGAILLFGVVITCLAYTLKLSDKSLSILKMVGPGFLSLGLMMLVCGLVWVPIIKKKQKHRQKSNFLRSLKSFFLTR
Assay [2] has as its target T1, PIRT (Phosphoinositide-interacting regulator of TRP). The assay is described as follows: microscale thermophoresis. It counts as binding.
The target of assay [3] is T2, Human PIRT (phosphoinositide-interacting regulator of TRP), fluorescently labeled for MST (human, UniProt P0C851 1-137, fluorescently labeled (dye and site not stated; by the protocol of ref. 24)).
T2 construct: Measured in 0.1% DPC micelles; The His tag is named only for the pull-down; also called MST labeled PIRT; source: purified
T2 sequence (P0C851 whole entry): as above
The assay is described as follows: MST; 200 nM fluorescently labeled PIRT, peptide hormone titrated; 0.1% DPC (w/v), 50 mM HEPES, pH 7.0; room temperature; triplicate. The conditions noted are these: both partners purified.

In the case of “TRPV1 distal C-terminus (from UniProt O35433)”, in the assay with Calmodulin (holo), the Kd was 0.054 µM.

`C[C@]12CC[C@@H]3c4ccc(O)cc4CC[C@H]3[C@@H]1CC[C@@H]2O` [β-Estradiol]: in assay [1], the Kd worked out at 800 µM.

With `CC(C)CCC[C@@H](C)[C@H]1CC[C@H]2[C@@H]3CC=C4C[C@@H](OC(=O)CCC(=O)O)CC[C@]4(C)[C@H]3CC[C@]12C` [cholesteryl-hemisuccinate], the Kd in assay [2] (read-out: Kd) came to 103 µM.

In assay [2], `C=C1CC[C@H](O)C/C1=C/C=C1\CCC[C@]2(C)[C@@H]([C@H](C)CCCC(C)C)CC[C@@H]12` [Cholecalciferol] had a Kd of 2100 µM.

As for `C[C@]12CCC(=O)C=C1CC[C@@H]1[C@@H]2[C@@H](O)C[C@@]2(C)[C@H]1CC[C@]2(O)C(=O)CO` [Cortisol], the Kd in assay [2] (read-out: Kd) is 790 µM.

B1: Oxytocin (peptide, UniProt P01178 20-28, looked up)
peptide: CYIQNCPLG-NH2
modifications: disulfide 1-6
notes: oxytocin, peptide hormone, cyclic nonapeptide cut from the oxytocin-neurophysin 1 precursor
The molecule B1 came in with a dissociation constant (Kd) in assay [3] of 7 µM.

The record behind these values is publication PMC7175203, “PIRT the TRP Channel Regulating Protein Binds Calmodulin and Cholesterol-Like Ligands” (Biomolecules, 2020).
